Series [1] deals with Chikungunya virus. The experiment in a line: Chikungunya virus (MOI 0.5) viral inhibition in U2OS cell line. It counts as cell-based. The conditions noted are these: for inhibition at 10 µM: read-out: Viral Inh. 10 uM; for inhibition at 50 µM: read-out: Viral Inh. 50 uM.
Series [2] has as its system U2OS cell line. The experiment in a line: Cell viability, U2OS cell line (Chikungunya screen).
Series [3] has as its system SARS Coronavirus Orbani. Put plainly: microbe, parasite or virus in culture. Type of series: cell-based. The conditions noted are these: Severe acute respiratory syndrome coronavirus, Vero 76.
Series [4] can be described thus: in vitro. The conditions noted are these: African green monkey.
Series [5] deals with Norovirus GT1. The experiment in a line: Norovirus GT1 antiviral screening in HG23 cells. It counts as cell-based.
Series [6] in a line: Cytotoxicity in HG23 cells (Norovirus screen). It counts as cell-based. The conditions noted are these: human.
For series [7], the system named is VEEV. The experiment in a line: microbe, parasite or virus in culture. Type of series: cell-based. To be noted: Venezuelan equine encephalitis virus, Astrocyte; for inhibition at 10 µM: read-out: Viral Inh. 10 uM; for inhibition at 50 µM: read-out: Viral Inh. 50 uM.
In series [8] the test system is Astrocytes.
In series [9] the test system is MERV. Put plainly: MERV (MOI 0.4) viral inhibition in VERO. It counts as cell-based. The conditions noted are these: for inhibition at 10 µM: read-out: Viral Inh. 10 uM; for inhibition at 50 µM: read-out: Viral Inh. 50 uM.
Series [10] deals with VERO. The experiment in a line: Cell viability, VERO (MERV screen). Type of series: cell-based.
For series [11], the system named is VEEV. The experiment in a line: microbe, parasite or virus in culture. Type of series: cell-based. To be noted: Venezuelan equine encephalitis virus, HeLa; for inhibition at 10 µM: read-out: Viral Inh. 10 uM; for inhibition at 50 µM: read-out: Viral Inh. 50 uM.
Series [12] has as its system HeLa.

≈ marks a conversion by molar mass, not a printed value. Like-named read-outs stand apart in the source and are kept apart here. Bounds are passed on as bounds.

Take `O=c1nc(NO)c(F)cn1[C@@H]1O[C@H](CO)[C@H](O)C1O` (stereo partly drawn) [drawing 84]: in series [1], the inhibition at 10 µM amounted to 8% and the inhibition at 50 µM stood at 51%. In series [2], the “Cell Viability 10 uM” value is recorded as 81% ± 4% (n = 4) and the “Cell Viability 50 uM” value is reported as 53% ± 2% (n = 4).
What is called EC50 is the midpoint of the concentration-response curve. `CCCCCCCCC(=O)ONc1ccn([C@@H]2O[C@H](CO)[C@H](O)C2O)c(=O)n1` (stereo partly drawn): in series [3], the response was half-maximal at 0.19 µg/mL (≈ 0.476 µM) (EC50). The same compound returned a CC50 in [4] of 36 µg/mL (≈ 90.1 µM).
For `CC1(O)[C@@H](O)[C@@H](CO)O[C@H]1n1ccc(NO)nc1=O` (stereo partly drawn), the EC50 in [5] and in [3] was over 100 µg/mL in each case. The CC50 in series [6] and in series [4] was over 100 µg/mL throughout.
With `CC(C)OC(=O)[C@H](C)NP(=O)(OC[C@H]1O[C@@H](n2ccc(NO)nc2=O)C(O)[C@H]1O)Oc1ccccc1` (stereo partly drawn) [drawing 83], in series [1], the inhibition at 10 µM was found to be 3% and the inhibition at 50 µM is 36%. In [2], the “Cell Viability 10 uM” value is listed as 99% ± 6% (n = 4) and the “Cell Viability 50 uM” value is on record as 99% ± 8% (n = 4).
The like results for `O=c1nc(NO)ccn1[C@@H]1O[C@H](CO)[C@H](O)C1O` (stereo partly drawn) [drawing 81] were, in that order, 80%, 100%, 97% ± 5% (n = 4) and 79% ± 10% (n = 4).
On to `CCCCCCCOC(=O)ONc1ccn([C@@H]2O[C@H](CO)[C@H](O)C2O)c(=O)n1` (stereo partly drawn) [drawing 82], for which, in series [1], the inhibition at 10 µM stood at 72% and the inhibition at 50 µM was found to be 98%. Moreover, in series [2], the “Cell Viability 10 uM” value is recorded as 93% ± 4% (n = 4) and the “Cell Viability 50 uM” value is given as 78% ± 8% (n = 4).
For the compound `CCCCCCCNC(=O)ONc1ccn([C@@H]2O[C@H](CO)[C@H](O)C2O)c(=O)n1` (stereo partly drawn) [drawing 95], in [7], the inhibition at 10 µM is 51% and the inhibition at 50 µM was 37%. In addition, in [8], the “Cell Viability 10 uM” value is given as 98% ± 12% (n = 3) and the “Cell Viability 50 uM” value is on record as 85% ± 19% (n = 3).
Turning to `CCCCCCCOC(=O)ONc1ccn([C@@H]2O[C@H](CO)[C@H](O)C2O)c(=O)n1` (stereo partly drawn) [drawing 97], in series [9], the inhibition at 10 µM was determined as 99% and the inhibition at 50 µM turned out to be 99%. For the same compound, in series [10], the “Cell Viability 10 uM” value is 84% ± 8% (n = 4) and the “Cell Viability 50 uM” value is 58% ± 2% (n = 4).
As for `CCCCCCCNC(=O)ONc1ccn([C@@H]2O[C@H](CO)[C@H](O)C2O)c(=O)n1` (stereo partly drawn) [drawing 100], in [9], the inhibition at 10 µM came out at 86% and the inhibition at 50 µM was determined as 98%. Besides, in [10], the “Cell Viability 10 uM” value was 118% ± 15% (n = 4) and the “Cell Viability 50 uM” value is on record as 91% ± 39% (n = 4).
`CCCCCCCOC(=O)ONc1ccn([C@@H]2O[C@H](CO)[C@H](O)C2O)c(=O)n1` (stereo partly drawn) [drawing 78]: a half-maximal response in series [3] (EC50) required 0.28 µg/mL (≈ 0.698 µM). Moreover, the CC50 in series [4] was over 100 µg/mL.
For the compound `CCCCCCCOC(=O)ONc1ccn([C@@H]2O[C@H](CO)[C@H](O)C2O)c(=O)n1` (stereo partly drawn) [drawing 87], in series [11], the EC50 amounted to 0.57 µM, the inhibition at 10 µM is 100% and the inhibition at 50 µM stood at 100%. In addition, in series [12], the “Cell Viability 10 uM” value is given as 116% ± 20% (n = 4) and the “Cell Viability 50 uM” value was 85% ± 8% (n = 4).
In the case of `CC(C)OC(=O)[C@H](C)NP(=O)(OC[C@H]1O[C@@H](n2ccc(NO)nc2=O)C(O)[C@H]1O)Oc1ccccc1` (stereo partly drawn) [drawing 98], in [9], the inhibition at 10 µM is 29% and the inhibition at 50 µM is 85%. Also, in [10], the “Cell Viability 10 uM” value is 103% ± 14% (n = 4) and the “Cell Viability 50 uM” value is reported as 102% ± 36% (n = 4).
As to `CC(C)OC(=O)[C@H](C)NP(=O)(OC[C@H]1O[C@@H](n2ccc(NO)nc2=O)C(O)[C@H]1O)Oc1ccccc1` (stereo partly drawn) [drawing 88], in series [11], the EC50 is 16.2 µM, the inhibition at 10 µM was 73% and the inhibition at 50 µM stood at 100%. Moreover, in [12], the “Cell Viability 10 uM” value is listed as 137% ± 16% (n = 4) and the “Cell Viability 50 uM” value is 134% ± 16% (n = 4).
For `O=c1nc(NO)ccn1[C@@H]1O[C@H](CO)[C@H](O)C1O` (stereo partly drawn) [drawing 76], the EC50 in series [5] is over 100 µg/mL; in series [3] it was under 0.1 µg/mL. The CC50 in series [6] was over 100 µg/mL; in [4], 36 µg/mL (≈ 139 µM).
On to `O=c1nc(NO)ccn1[C@@H]1O[C@H](CO)[C@H](O)C1O` (stereo partly drawn) [drawing 96], for which, in [9], the inhibition at 10 µM is 99% and the inhibition at 50 µM stood at 100%. For the same compound, in series [10], the “Cell Viability 10 uM” value is listed as 75% ± 6% (n = 4) and the “Cell Viability 50 uM” value was 47% ± 3% (n = 4).
`O=c1nc(NO)ccn1[C@@H]1O[C@H](CO)[C@H](O)C1O` (stereo partly drawn) [drawing 86]: in series [11], the EC50 was found to be 1.24 µM, the inhibition at 10 µM worked out at 100% and the inhibition at 50 µM was determined as 100%. Further, in series [12], the “Cell Viability 10 uM” value is reported as 116% ± 24% (n = 4) and the “Cell Viability 50 uM” value was 61% ± 8% (n = 4).
As for `CCCCCCCNC(=O)ONc1ccn([C@@H]2O[C@H](CO)[C@H](O)C2O)c(=O)n1` (stereo partly drawn) [drawing 85], in series [1], the inhibition at 10 µM came to 14% and the inhibition at 50 µM worked out at 70%. Also, in series [2], the “Cell Viability 10 uM” value is 105% ± 2% (n = 4) and the “Cell Viability 50 uM” value is 96% ± 11% (n = 4).
As to `CC(C)OC(=O)[C@H](C)NP(=O)(OC[C@H]1O[C@@H](n2ccc(NO)nc2=O)C(O)[C@H]1O)Oc1ccccc1` (stereo partly drawn) [drawing 93], in series [7], the inhibition at 10 µM was 49% and the inhibition at 50 µM came out at 96%. In addition, in [8], the “Cell Viability 10 uM” value is reported as 102% ± 16% (n = 3) and the “Cell Viability 50 uM” value is given as 100% ± 17% (n = 3).
For the compound `CCCCCCCNC(=O)ONc1ccn([C@@H]2O[C@H](CO)[C@H](O)C2O)c(=O)n1` (stereo partly drawn) [drawing 90], in series [11], the midpoint of the response, the EC50, lay at 6 µM; the inhibition at 10 µM was found to be 93%; the inhibition at 50 µM turned out to be 100%. For the same compound, in series [12], the “Cell Viability 10 uM” value is 151% ± 16% (n = 4) and the “Cell Viability 50 uM” value was 126% ± 7% (n = 4).
For the compound `O=c1nc(NO)ccn1[C@@H]1O[C@H](CO)[C@H](O)C1O` (stereo partly drawn) [drawing 91], in [7], the inhibition at 10 µM stood at 99% and the inhibition at 50 µM worked out at 100%. In series [8], the “Cell Viability 10 uM” value was 98% ± 12% (n = 3) and the “Cell Viability 50 uM” value was 86% ± 5% (n = 3).
Take `O=c1nc(NO)c(F)cn1[C@@H]1O[C@H](CO)[C@H](O)C1O` (stereo partly drawn) [drawing 89]: in series [11], the inhibition at 10 µM was 61% and the inhibition at 50 µM turned out to be 98%. For the same compound, in [12], the “Cell Viability 10 uM” value is given as 55% ± 4% (n = 4) and the “Cell Viability 50 uM” value is 36% ± 2% (n = 4).
For `CONc1ccn([C@@H]2O[C@H](CO)[C@H](O)C2O)c(=O)n1` (stereo partly drawn), the half-maximal effective concentration (EC50) in [3] was over 100 µg/mL. The compound further showed a CC50 in series [4] of over 100 µg/mL.
As for `CCCCCCCOC(=O)ONc1ccn([C@@H]2O[C@H](CO)[C@H](O)C2O)c(=O)n1` (stereo partly drawn) [drawing 92], in series [7], the inhibition at 10 µM is 94% and the inhibition at 50 µM came out at 100%. Also, in series [8], the “Cell Viability 10 uM” value is listed as 99% ± 9% (n = 3) and the “Cell Viability 50 uM” value is recorded as 94% ± 10% (n = 3).
